Where two headings read alike, the source gives them in different places.
How the values were obtained:
[1] = tested on: all broadleaf species in the trial; assay: Trial 64: greenhouse foliar spray trial, broadleaf species; type: in vivo; details: 0.5 molarity; Days 12 through 34
From the text: (§1) The majority of greenhouse trials conducted to date have been of one basic design: • 1. Samples of different species of flowering plant and grass are exposed to different formulations of the herbicide in accordance with some embodiments, prepared in a range of concentrations, in combination with potentially suitable adjuvants, and applied as an aquatic spray. Experimental plants are purchased either from a local nursery, grown from ornamental and weed seed packs, or grown from seeds of a custom blend prepared specifically for this project and listed in Table 4B. The experimental variable in a typical test is the molar mass concentration of the nutrient salt being examined. Other factors including pH, nitrogen source, and the amount and composition of surfactant or penetrant are constants within a trial except when one of these factors is itself the variable of interest in the experiment. Experiments are controlled unless irrelevant for a particular test. • 2. […] Plants are sprayed with the experimental formulation, always in late afternoon (greenhouse tests), or in early morning (field tests), are observed over as many as several weeks, and their visible state of decline scored by the same examiner on a 9 points system relying on visual effects of toxicity. […]

[2] = tested on: the grass species in the trial; assay: Trial 64: greenhouse foliar spray trial, grass species; type: in vivo, grasses of pasture seed blend; details: 0.5 molarity; Days 12 through 34
From the text: as §1

[3] = tested on: Pasture Blend 2, Allium cepa (Onion), Cineraria maritima (Dusty miller), Antirrhinum majus (Snapdragon); assay: Trial 44: greenhouse foliar spray trial, visual toxicity scoring; type: in vivo
From the text: The majority of greenhouse trials conducted to date have been of one basic design: • 1. Samples of different species of flowering plant and grass are exposed to different formulations of the herbicide in accordance with some embodiments, prepared in a range of concentrations, in combination with potentially suitable adjuvants, and applied as an aquatic spray. Experimental plants are purchased either from a local nursery, grown from ornamental and weed seed packs, or grown from seeds of a custom blend prepared specifically for this project and listed in Table 4B. The experimental variable in a typical test is the molar mass concentration of the nutrient salt being examined. Other factors including pH, nitrogen source, and the amount and composition of surfactant or penetrant are constants within a trial except when one of these factors is itself the variable of interest in the experiment. Experiments are controlled unless irrelevant for a particular test. • 2. Standard techniques to reduce experimental error are employed including use of controls; standard spray application pressures; standardized growing conditions, growing medium, containers, and source irrigation water; and preparation and shipping of samples for laboratory analysis according to required standard laboratory protocols. • 3. Plants are sprayed with the experimental formulation, always in late afternoon (greenhouse tests), or in early morning (field tests), are observed over as many as several weeks, and their visible state of decline scored by the same examiner on a 9 points system relying on visual effects of toxicity. (Table 5.)
Scores of half-value are also used: 0, 0.5, 1.0, 1.5, 2.0, 2.5, etc. • 4. The estimated successful herbicidal effectiveness of a formulation was determined from a combination of averaged and cumulative scores of 4.0 to 5.0 observed approximately 14 days or longer after application: “All leaves and flowers if present desiccated, browned, wilted, and stems or blades lodged; no green tissue visible; no regrowth from roots visible.”
S-1 corresponds to the highest concentration of active nutrient tested, S-3 corresponds to the lowest concentration of nutrient tested and S-2 represents an intermediate level.

[4] = tested on: Pasture Blend 1, Calendula officinalis (Common marigold), Cineraria meritima (Dusty miller) (plants 21, 7, 10); assay: Trial 13: greenhouse foliar spray trial, visual toxicity scoring; type: in vivo; details: Day 11
From the text: as §1

plants = assay: Example 13: micronutrient salt composition applied to plants as in Example 1, toxicity scoring; type: in vivo; details: after a period of 3-30 days
Method: Toxicity scoring is performed as described in Table 7.

weeds growing in soil = type: in vivo
[5] = tested on: broadleaf (dicotyledonous) species (Antirrhinum majus, Cineraria meritima); assay: Trial 41: greenhouse foliar spray trial, dicots, visual toxicity scoring; type: in vivo; details: solutions “B”, 2.0M; Plant 3 and 10; by test conclusion at Day 23
From the text: (§2) FIG. 5 depicts the average toxicity scores for the four plants tested in Trial 41, which tested an embodiment of an herbicide composition and method of using the same. The plants were numbered 22, 2, 3, and 10, corresponding to mixed monocotyledonous and dicotyledonous Pasture Blend 2 and Allium cepa (Onion “Torpedo Red”), and dicotyledonous Antirrhinum majus (Snapdragon) and Cineraria meritima (Dusty Miller, “Silver Dust” (Refer to Tables 4A and 4B for plant species identification). Both of the samples S-1 and S-2 were solutions of 2.0 Molar of ammonium sulfate having a pH of 5.5. (Refer to Tables 6A and 6B for trial solutions, details and results). Results of Trial 41: For broadleaf (dicotyledonous) species of Sample S-1 at 2.0 Molar concentration, excellent phytotoxic effects from 4.0 to 5.0 (“severe-to-fatal”) resulted from Day 3 through trial conclusion at Day 23. For monocotyledonous grass and liliaceae species of Sample S-2 at 2.0 Molar concentration, an initial moderate effect of 3.0 had decreased to 2.3 (“slight”). […] Dicots included in the Pasture 2 samples of S-1 and S-2 were all dead by Day 7. However, separate toxicity results for the monocots and dicots present in the Pasture Blend 2 mix were not recorded, and are not presented in FIG. 5.
(§3) In Trial 41, the herbicide comprised Ammonium sulfate […]; molarity 2.0; unadjusted pH approx. 5.5. […]

[6] = tested on: monocotyledonous grass and liliaceae species (Pasture Blend 2, Allium cepa); assay: Trial 41: greenhouse foliar spray trial, monocots, visual toxicity scoring; type: in vivo, grasses of pasture seed blend; details: 2.0M; Plants P-2 and 2
From the text: as §2, §3

[7] = tested on: the three grasses in P-2 (Pasture Blend 2); assay: Trial 46: greenhouse foliar spray trial, grasses, visual toxicity scoring; type: in vivo, Lolium perenne, Dactylis glomerata, Festuca arundinacea; details: Day 8 through Day 18
From the text: (§4) FIG. 9 is a graph showing the average toxicity scores for the […] plants tested in Trial 46, which tested an embodiment of an herbicide composition and method of using the same. The plants were numbered P2, 5, 11A, and 13, corresponding to Pasture Blend 2, Brassica oleracea (Kale), Dichondra repens, Fragraia x ananassa Strawberry (Refer to Tables 4A and 4B for plant species identification). Solutions S-1 and S-2 correspond to solutions of Monopotassium phosphate (KH2PO4) at concentrations of 2.0 molarity (Solution 1) and 1.5 molarity (Solution 2). […] The adjuvants in Trial 46 were […] silicone surfactant and methylated seed oil (MSO).
(§5) The majority of greenhouse trials conducted to date have been of one basic design: • 1. Samples of different species of flowering plant and grass are exposed to different formulations of the herbicide in accordance with some embodiments, prepared in a range of concentrations, in combination with potentially suitable adjuvants, and applied as an aquatic spray. […] Plants are sprayed with the experimental formulation, always in late afternoon (greenhouse tests), or in early morning (field tests), are observed over as many as several weeks, and their visible state of decline scored by the same examiner on a 9 points system relying on visual effects of toxicity. […]

[8] = tested on: broadleaf (dicot) samples: Brassica oleracea (Kale), Dichondra repens, Fragraia x ananassa (Strawberry); assay: Trial 46: greenhouse foliar spray trial, broadleaf (dicot) samples, visual toxicity scoring; type: in vivo, Fragaria x ananassa
From the text: as §4, §5

O.O.O.O.O=BOB1OB(OB=O)OB2OB([O-])OB([O-])OB(O1)O2.[Na+].[Na+] [disodium octaborate tetrahydrate]
phytotoxic control (in words) [1]: Excellent phytotoxic control | phytotoxic control (in words) [2]: Partial control

O=S(=O)([O-])[O-].[Zn+2] [ZnSO4, Zinc Sulfate]
average toxicity score ([3]; 1.0M, first of three values for “Days 521 through 32”): 4.3 | average toxicity score ([3]; 1.0M, second of three values for “Days 521 through 32”): 4.4 | average toxicity score ([3]; 1.0M, third of three values for “Days 521 through 32”): 4.2 | average toxicity score ([3]; 1.0 molar solution, Day 21 through Day 32): approximately 4.5 | average toxicity score ([3]; 2.0 molar solution, Day 9): 3.9

O=C([O-])CC(O)(CC(=O)[O-])C(=O)[O-].[K+].[K+].[K+] [K-citrate, potassium citrate]
average toxicity score ([4]; 1.0M): 4.0 | average toxicity score ([4]; […]): 4.3

O.O=S(=O)([O-])[O-].[Zn+2] [Zn sulfate monohydrate]
plant death (plants): plant death is observed

O=[N+]([O-])[O-].O=[N+]([O-])[O-].[Ca+2] [calcium nitrate]
herbicidal effects on the weed plants (weeds growing in soil; in vivo): has herbicidal effects

N.N.O=S(=O)(O)O [Ammonium sulfate]
herbicidal effects on the weed plants (weeds growing in soil; aqueous solution with citric acid and a surfactant, sprayed): has herbicidal effects | toxicity level (in words) [5]: severe-to-fatal | responsiveness (in words) [6]: considerably less responsive

O=[N+]([O-])[O-].O=[N+]([O-])[O-].[Mg+2] [magnesium nitrate]
herbicidal effects on the weed plants (weeds growing in soil; in vivo): has herbicidal effects

O=P([O-])(O)O.[K+] [Mono-potassium phosphate]
phytotoxic effect (in words) ([7]; 1.5 molar test solution): minimal effect | phytotoxic effect (in words) ([7]; 2.0 molar test solution): minimal effect | phytotoxic effect (in words) ([8]; 1.0M solution (so in the source), Days 8 through 18): severe-to-fatal | phytotoxic effect (in words) ([8]; 2.0 molar test solution, Day 8 through Day 18, broadleaf samples (dicots)): Severe-to-fatal

From US12648565B2, “Post-emergence herbicide” (Belvedere Foliar LLC, priority 2017, dated 2026)
